# From patent US5567716A, “Trans and cis traumatic acid salts having cicatrizant activity associated to bacteriostatic, antiviral, antibiotic or antifungal activity” (priority 1992, dated 1996)
# Where two headings read alike, the source gives them in different places.
# Assays:
# [1] = tested on: Balb/C 3T3 fibroblasts; assay: Cell growth of Balb/C 3T3 fibroblasts, crystal violet colorimetry (1.1b); assay type: cell-based, Mouse; details: for promotion of cell growth: 10^-5 to 10^-7 M, lincomycin > rolitetracycline > erythromycin salt; for promotion of cell growth / cell growth effect compared to traumatic acid: in words; for cell growth t2/t1: 48 h/24 h, control 76.776
# Method: Mouse Balb/C 3T3 fibroblasts were grown in DMEM medium supplemented with penicillin (100 units/ml) and streptomycin (0.1 mg/ml). For experimental purposes, cells are routinely inoculated in […] diameter culture dishes (5000cells/dish) and cultured overnight.
# The compounds to be tested are solubilized in DMEM+10%FCS and DMSO to obtain the final concentration of 10^-5 M, 10^-6 M e 10^-7 M in 0.05% DMSO.
# The cells number is measured 4, 24 and 48 hours after seeding. The cell growth is evaluated as t2/t1 ratio (%).
# [2] = tested on: B.subtilis ATCC 6633; assay: Evaluation of bacteriostatic minimal concentration (BMC); assay type: cell-based; details: test concentrations given in μg/ml; for MINIMAL BACTERIAL CONCENTRATION: Table 2.b)5
# Method: (§1) 1. Culture Medium: Tryprone Soy Broth (TBS) - Biogenetics
# (§2) Microbic standard strains from American Type Culture Collection (ATCC) were used, chosen among aerobic Gram positive and negative as follows:
# (§3) The broths culture of the different species are prepared growing the standard strain (kept in Tryptic Soy Agar (TSA) slent at 5° C.) in Tryptone Soy Broth (TSB) for 12 hours at 37° C. 10 ml are then taken up from each culture, centrifugated for 3 times at 3500 PM washing each time the sediment using 10 ml of sterile saline solution. The sediment is resuspended in the saline solution until obtainment of a turbidity corresponding to the Mc Farland standard solution (the suspension title must be […] UFC/ml).
# (§4) The compounds, dissolved as stock solution, were added to test tubes containing 5 ml TBS in order to obtain the desired Final concentration 10000; 5000; 1000; 200; 40; 2; 0.4; 0.05 μg/ml (culture medium maximal dilution=1/10).
# (§5) 50 μl of bacterial suspension are added to the tube containing the compounds to be tested and incubated at 37° C.: the densitometric determination is made in comparison with Mc Farland standard solution 24 and 48 hours later.
# (§6) After the incubation time the suspensions ape gently agitated; 50 μl of each suspension are inoculated in tubes containing […] of TSB and incubated at 37° C.; the densitometric determination is made 48 hours later.
# (§7) BMC is defined by comparison between the two densitometric evaluation.
# [3] = tested on: C.albicans ATCC 10231; assay: as above; assay type: cell-based; details: test concentrations given in μg/ml; for MINIMAL BACTERIAL CONCENTRATION: Table 2.b)6
# Method: as §1, §2, §3, §4, §5, §6, §7
# [4] = tested on: Ps.aeruginosa ATCC 35422; assay: as above; assay type: cell-based; details: for MINIMAL BACTERIAL CONCENTRATION: Table 2.b)1, test concentrations given in μg/ml
# Method: as §1, §2, §3, §4, §5, §6, §7
# [5] = tested on: St.aureus ATCC 65380; assay: as above; assay type: cell-based; details: for MINIMAL BACTERIAL CONCENTRATION: Table 2.b)2, test concentrations given in μg/ml
# Method: as §1, §2, §3, §4, §5, §6, §7
# [6] = tested on: St.epidermidis ATCC 14990; assay: as above; assay type: cell-based; details: test concentrations given in μg/ml; for MINIMAL BACTERIAL CONCENTRATION: Table 2.b)4
# Method: as §1, §2, §3, §4, §5, §6, §7
# [7] = tested on: E.coli ATCC 35218; assay: microbe, parasite or virus in culture; assay type: cell-based; details: for MINIMAL BACTERIAL CONCENTRATION: Table 2.b)3, test concentrations given in μg/ml
# Method: as §1, §2, §3, §4, §5, §6, §7
# [8] = for organic solvent solubility: dmso
# [9] = tested on: fibroblast cells L929; assay: Cell growth of fibroblast L929 culture, crystal violet colorimetry (1.2); details: in words
# Method: Mice fibroblast cells L929, clone derived from connective tissue, are suspended in Eagle's MEM with penicillin (100U/ml)--streptomycin (0.1 mg/ml), seeded in culture dishes (10000cells/dish) and cultured overnight. After 24 hours the culture medium was decantated and the tested compounds are added. The cellular density is measured after 4 (t0) and 24 (t1) hours of incubation at 37° C. in 5% CO2 air by colorimetry using crystal violet (exposure for 15 minutes, room temperature; absorbance 570 nm).
# The cells number is measured at 4 (t0) and 24 (t1) hours from the seeding. The cell growth is evaluated at t1/t0 rate (%).
# [10] = Physical chemical characteristics: solubility in water and organic solvents
# [11] = 4 h (t0), 10^-5M, control 0.300
# [12] = 4 h (t0), 10^-6M, control 0.300
# [13] = 4 h (t0), 10^-7M, control 0.300
# [14] = 24 h (t1), 10^-5M, control 0.481
# [15] = 24 h (t1), 10^-6M, control 0.481
# [16] = 24 h (t1), 10^-7M, control 0.481
# [17] = 48 h (t2), 10^-5M, control 0.849
# [18] = 48 h (t2), 10^-6M, control 0.849
# [19] = 48 h (t2), 10^-7M, control 0.849
Compound,promotion of cell growth [1],"Cell density [1, 11]","Cell density [1, 12]","Cell density [1, 13]","Cell density [1, 14]","Cell density [1, 15]","Cell density [1, 16]","Cell density [1, 17]","Cell density [1, 18]","Cell density [1, 19]",cell growth t2/t1 ([1]; 10^-5M) [%],cell growth t2/t1 ([1]; 10^-6M) [%],cell growth t2/t1 ([1]; 10^-7M) [%],cell growth effect compared to traumatic acid [1],MINIMAL BACTERIAL CONCENTRATION [2],MINIMAL BACTERIAL CONCENTRATION [3],MINIMAL BACTERIAL CONCENTRATION [4],MINIMAL BACTERIAL CONCENTRATION [5],MINIMAL BACTERIAL CONCENTRATION [6],MINIMAL BACTERIAL CONCENTRATION [7],other results
"CCC[C@@H]1C[C@@H](C(=O)N[C@@H]([C@H]2O[C@H](SC)[C@H](O)[C@@H](O)[C@H]2O)[C@@H](C)O)N(C)C1.O=C(O)/C=C/CCCCCCCCC(=O)O (relative stereo) [Lincomycin Traumatate, lincomycin trans-traumatate]",capable to promote cell growth at all the tested doses,0.361,0.352,0.384,0.228,0.210,0.209,0.693,0.734,0.705,195.78,246.29,247.68,more consistent if compared to the corresponding one of the parent compound traumatic acid,"1,000.00","10,000.00","10,000.00","10,000.00",200.00,"10,000.00",organic solvent solubility [8]: > 10000 µg/mL; solubility in water [8]: > 10000 µg/mL
"CC(C)(C)CC(C)(C)c1ccc(OCCOCC[N+](C)(C)Cc2ccccc2)cc1.CC(C)(C)CC(C)(C)c1ccc(OCCOCC[N+](C)(C)Cc2ccccc2)cc1.O=C([O-])/C=C/CCCCCCCCC(=O)[O-] [Benzethonium Traumatate, benzethonium trans-traumatate]",–,–,–,–,–,–,–,–,–,–,–,–,–,–,8.00,2.00,200.00,2.00,2.00,40.00,cell growth effect compared to traumatic acid [9]: higher than traumatic acid effect; promotion of cell growth (proliferation) ([9]; benzethonium > gentamycin salt): capable to promote cell growth (proliferation) according to dose-effect relationship
"NC(=NCCCCCCN=C(N)N=C(N)Nc1ccc(Cl)cc1)N=C(N)Nc1ccc(Cl)cc1.O=C(O)/C=C/CCCCCCCCC(=O)O [Chlorhexidine Traumatate, chlorhexidine trans-traumatate]",–,–,–,–,–,–,–,–,–,–,–,–,–,–,2.00,2.00,40.00,8.00,2.00,8.00,organic solvent solubility [8]: > 10000 µg/mL
"CC[C@H]1OC(=O)[C@H](C)[C@@H](O[C@H]2C[C@@](C)(OC)[C@@H](O)[C@H](C)O2)[C@H](C)[C@@H](O[C@@H]2O[C@H](C)C[C@H](N(C)C)[C@H]2O)[C@](C)(O)C[C@@H](C)C(=O)[C@H](C)[C@@H](O)[C@]1(C)O.CC[C@H]1OC(=O)[C@H](C)[C@@H](O[C@H]2C[C@@](C)(OC)[C@@H](O)[C@H](C)O2)[C@H](C)[C@@H](O[C@@H]2O[C@H](C)C[C@H](N(C)C)[C@H]2O)[C@](C)(O)C[C@@H](C)C(=O)[C@H](C)[C@@H](O)[C@]1(C)O.O=C(O)/C=C/CCCCCCCCC(=O)O [Erythromycin Traumatate, Erythromycin trans-traumatate]",capable to promote cell growth at all the tested doses,0.370,0.352,0.344,0.365,0.369,0.368,0.919,0.921,1.074,159.16,148.64,196.81,more consistent if compared to the corresponding one of the parent compound traumatic acid,"1,000.00","> 10,000","10,000.00","10,000.00",–,"10,000.00","organic solvent solubility ([10]; in DMSO): > 10000 µg/mL; organic solvent solubility ([10]; in ethanol): > 10000 µg/mL; water solubility ([10]; water, in words): poorly soluble"
"NC[C@H]1O[C@H](O[C@H]2[C@H](O)[C@@H](O[C@H]3O[C@H](CO)[C@@H](O)[C@H](N)[C@H]3O)[C@H](N)C[C@@H]2N)[C@H](N)C[C@@H]1O.NC[C@H]1O[C@H](O[C@H]2[C@H](O)[C@@H](O[C@H]3O[C@H](CO)[C@@H](O)[C@H](N)[C@H]3O)[C@H](N)C[C@@H]2N)[C@H](N)C[C@@H]1O.O=C(O)/C=C/CCCCCCCCC(=O)O.O=C(O)/C=C/CCCCCCCCC(=O)O.O=C(O)/C=C/CCCCCCCCC(=O)O.O=C(O)/C=C/CCCCCCCCC(=O)O.O=C(O)/C=C/CCCCCCCCC(=O)O [Tobramycin Traumatate, tobramycin trans-traumatate]",–,–,–,–,–,–,–,–,–,–,–,–,–,–,–,–,"5,000","1,000.00",–,200.00,organic solvent solubility [8]: > 10000 µg/mL; solubility in water [8]: > 10000 µg/mL
"O=C([O-])/C=C/CCCCCCCCC(=O)[O-].[Zn+2] [Zinc Traumatate, zinc trans-traumatate]",–,–,–,–,–,–,–,–,–,–,–,–,–,–,–,–,–,–,–,–,"MIC ([2]; Bacillus subtilis, ATCC6633; Table 2.b)5, read-out: MINIMAL BACTERIAL CONCENTRATION): > 10000 µg/mL; MIC ([3]; Candida albicans, ATCC10231; Table 2.b)6, read-out: MINIMAL BACTERIAL CONCENTRATION): > 10000 µg/mL; MIC ([4]; Pseudomonas aeruginosa, ATCC35422, read-out: MINIMAL BACTERIAL CONCENTRATION): > 10000 µg/mL; MIC ([5]; Staphylococcus aureus, ATCC65380, read-out: MINIMAL BACTERIAL CONCENTRATION): > 10000 µg/mL; MIC ([6]; Staphylococcus epidermidis, ATCC14990; Table 2.b)4, read-out: MINIMAL BACTERIAL CONCENTRATION): > 10000 µg/mL; MIC ([7]; Escherichia coli, ATCC35218, read-out: MINIMAL BACTERIAL CONCENTRATION): > 10000 µg/mL; solubility ([10]; 5% nh3): > 10000 µg/mL; organic solvent solubility ([10]; in DMSO, in words): poorly soluble; organic solvent solubility ([10]; in ethanol, in words): poorly soluble; water solubility ([10]; water, in words): poorly soluble"
rolitetracycline trans-traumatate [Rolitetracycline Traumatate],capable to promote cell growth at all the tested doses,0.46,0.475,0.482,0.255,0.356,0.287,0.678,0.660,0.828,166.39,186.69,185.44,more consistent if compared to the corresponding one of the parent compound traumatic acid,40.00,"1,000.00","10,000.00","5,000.00",200.00,"1,000.00",organic solvent solubility ([10]; in DMSO): > 10000 µg/mL; solubility in water ([10]; water): > 10000 µg/mL
silver trans-traumatate [Silver Traumatate],–,–,–,–,–,–,–,–,–,–,–,–,–,–,200.00,"> 10,000",40.00,40.00,200.00,40.00,solubility in 5% NH3 ([8]; 5% nh3): > 10000 µg/mL
